Experiments:
[1] = target: Cathepsin D (Homo sapiens (Human), UniProt P07339); assay: Cathepsin D FP assay; assay type: biochemical; conditions: pH 4.5, read-out: CatD FP IC50
Procedure, shortened: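 AlphaScreen (PBS, 0.01% Tween-20, 0.05% BSA, pH 7.0): compound preincubated 15 min with BACE1 ([…]), then biotinylated binding-site probe 1 h, beads 2 h; IC50 from signal. FP (100 mM sodium acetate, pH 4.5, 0.001% Tween-20): added BACE1 (0.3 nM) or cathepsin D (1.8 nM), 30 min RT.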

[2] = target: T1, BACE1 (Homo sapiens (Human), UniProt P56817); assay: BACE1 AlphaScreen assay (displacement of biotinylated BACE1 binding site probe); conditions: read-out: BACE1 AS IC50
T1 sequence (P56817 46-501): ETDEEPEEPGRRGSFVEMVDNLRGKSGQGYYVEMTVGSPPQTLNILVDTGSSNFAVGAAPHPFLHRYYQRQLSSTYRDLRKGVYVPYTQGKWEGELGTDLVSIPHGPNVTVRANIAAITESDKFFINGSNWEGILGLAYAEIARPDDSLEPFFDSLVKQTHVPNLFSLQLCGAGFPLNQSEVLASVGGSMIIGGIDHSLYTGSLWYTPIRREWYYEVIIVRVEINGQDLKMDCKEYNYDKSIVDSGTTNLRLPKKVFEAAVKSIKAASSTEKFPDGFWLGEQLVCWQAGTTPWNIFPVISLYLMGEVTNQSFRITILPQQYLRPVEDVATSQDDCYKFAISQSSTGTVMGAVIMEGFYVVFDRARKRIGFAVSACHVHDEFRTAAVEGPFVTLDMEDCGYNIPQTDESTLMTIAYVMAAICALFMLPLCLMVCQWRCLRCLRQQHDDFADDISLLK

[3] = test system: BACE1 inhibition in HEKp293 cells transfected with APP751 gene (SWE293); assay: SWE293 cellular assay: reduction of Aβ peptide production, ELISA; assay type: cell-based; conditions: Homo sapiens; dose at which Aβ level is reduced by 50%, HEKp293 SWE293 cells; read-out: SWE293 ED50
Procedure, shortened: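 SWE293 cells (HEK293 carrying APP751), plated overnight at 37 °C, received 1:3 serially diluted compound for two successive 2 h exposures with washes between. Medium Aβ was captured on 266-antibody plates, detected with 3D6 antibody and streptavidin-AP fluorescent substrate, and quantified against an Aβ-40 standard curve.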

[4] = target: T1, BACE1; assay: BACE1 FP assay; assay type: biochemical; conditions: pH 4.5
[5] = test system: Aβ x-40 levels; assay: In vivo reduction of Aβ x-40 levels in Sprague Dawley rat, oral dosing; conditions: for effect on brain Aβ x-40 levels / decrease of the mean Aβ x-40 compared to vehicle control in brain samples: rat cortical brain, 3 hours post dosing
Experimental: Ability of a compound as described herein to reduce the level of Aβ peptide in vivo was determined in a Sprague Dawley rat model. Compounds were dosed orally in female Sprague Dawley rats, along with a vehicle control, five rats per dose group. Compounds were formulated in 5% DMSO/0.5% methylcellulose, and dosed at various amounts (10 mL/kg), and 10 mL/kg vehicle by oral gavage. CSF was collected from the cistern magna under isoflurane anesthesia, frozen on dry ice and stored at −80° C. until assessed for Aβ peptide levels. […] Cortical brain samples were homogenized in 5 M guanidine and Aβ peptide was quantitated in these brain samples as well as plasma samples in an ELISA assay, where Aβ x-40 ELISA detects Aβ peptide N-terminal sequences containing the transmembrane region and ending at amino acid 40 at the C-terminus. The ELISA was performed as described in Johnson-Wood et al., PNAS February 1997, 94: 1550-1555, using capture antibody 266 (Aβ 16-23 specific) and biotinylated 2G3 (Aβ 40 specific) as reporter antibody. Results of cortical and plasma Aβ x-40 levels were statistically analyzed separately using a one-way Anova with a Dunnets post test analysis at the 0.05 significant level.

Cathepsin D, sequence (P07339 65-412, species assumed): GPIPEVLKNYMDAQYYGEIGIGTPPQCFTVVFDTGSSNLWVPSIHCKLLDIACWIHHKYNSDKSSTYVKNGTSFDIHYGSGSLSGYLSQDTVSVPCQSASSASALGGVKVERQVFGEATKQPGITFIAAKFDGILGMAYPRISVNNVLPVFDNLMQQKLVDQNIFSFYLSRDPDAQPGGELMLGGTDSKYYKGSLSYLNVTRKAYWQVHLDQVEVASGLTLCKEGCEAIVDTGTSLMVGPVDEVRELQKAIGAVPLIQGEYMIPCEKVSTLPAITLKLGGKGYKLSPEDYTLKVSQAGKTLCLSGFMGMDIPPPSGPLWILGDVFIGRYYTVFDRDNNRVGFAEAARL

| Compound | IC50 [1] [nM] | IC50 [2] [nM] | IC50 [3] [nM] | IC50 [4] [nM] | other results |
| --- | --- | --- | --- | --- | --- |
| CC1(c2cc(NC(=O)c3ccc(Cl)cn3)ccc2F)N=C(N)OC2(CCC2)C1(F)F (centres unmarked) [Compound 9-160, N-(3-(6-amino-9,9-difluoro-8-methyl-5-oxa-7-azaspiro[3.5]non-6-en-8-yl)-4-fluorophenyl)-5-chloropicolinamide] | > 30000 | 19.5 | 268 | 66 | – |
| CC1(c2cc(NC(=O)c3ccc(C#N)cn3)ccc2F)N=C(N)OC2(CCC2)C1(F)F (centres unmarked) [Compound 9-161, N-(3-(6-amino-9,9-difluoro-8-methyl-5-oxa-7-azaspiro[3.5]non-6-en-8-yl)-4-fluorophenyl)-5-cyanopicolinamide] | > 30000 | 13.5 | 38 | 66 | – |
| C[C@]1(c2cc(NC(=O)c3ccc(C#N)cn3)ccc2F)N=C(N)OC2(CCC2)C1(F)F [Compound 9-162, (R)—N-(3-(6-amino-9,9-difluoro-8-methyl-5-oxa-7-azaspiro[3.5]non-6-en-8-yl)-4-fluorophenyl)-5-cyanopicolinamide] | > 30000 | 15 | 39 | 40 | – |
| Cc1nc(C(=O)Nc2ccc(F)c(C3(C)N=C(N)OC4(CCC4)C3(F)F)c2)co1 (centres unmarked) [Compound 9-165, N-(3-(6-amino-9,9-difluoro-8-methyl-5-oxa-7-azaspiro[3.5]non-6-en-8-yl)-4-fluorophenyl)-2-methyloxazole-4-carboxamide] | > 30000 | 34 | 176 | 496 | – |
| COc1cccnc1Nc1ccc(F)c([C@]2(C)CC3(CCOCC3)SC(N)=N2)c1 [Compound 13-182, (S)-4-(2-fluoro-5-(3-methoxypyridin-2-ylamino)phenyl)-4-methyl-9-oxa-1-thia-3-azaspiro[5.5]undec-2-en-2-amine] | 14700 | 2 | < 123 | 32 | – |
| CC#Cc1cncc(-c2csc([C@]3(C)CC4(CCOCC4)OC(N)=N3)c2)c1 [Compound 104] | – | – | – | – | effect on brain Aβ x-40 levels ([5]; 50 and 200 mg/kg oral): no significant effect |
| CC1(c2cc(NC(=O)c3ccc(F)cn3)ccc2F)CC2(CCC2)OC(N)=N1 (centres unmarked) [Compound 125] | – | – | – | – | effect on brain Aβ x-40 levels ([5]; 30 or 100 mg/kg oral): no significant effect |
| C[C@@]1(c2cc(NC(=O)c3ccc(F)cn3)ccc2F)CC2(CCOCC2)SC(N)=N1 [Compound 148] | – | – | – | – | decrease of the mean Aβ x-40 compared to vehicle control in brain samples ([5]; 10 mg/kg oral): 23%; decrease of the mean Aβ x-40 compared to vehicle control in brain samples ([5]; 30 mg/kg oral): 31%; decrease of the mean Aβ x-40 compared to vehicle control in brain samples ([5]; 60 mg/kg oral): 31%; decrease of the mean Aβ x-40 compared to vehicle control in brain samples ([5]; 100 mg/kg oral): 40% |
| C[C@@]1(c2cc(NC(=O)c3ccc(Cl)cn3)ccc2F)CC2(CCOCC2)SC(N)=N1 [Compound 151] | – | – | – | – | duration of reduction in Aβ x-40 levels in CSF (relative to 12 hours in brain) ([5]; 30 mg/kg oral, rat, various timepoints, CSF): longer; duration of reduction in Aβ x-40 levels in brain samples ([5]; 30 mg/kg oral, rat, various timepoints, brain): up to 12 hours |
| C[C@@]1(c2cc(NC(=O)c3ccc(Cl)cn3)ccc2F)CC2(CC2)OC(N)=N1 [Compound 154] | – | – | – | – | decrease of the mean Aβ x-40 compared to vehicle control in brain samples ([5]; 100 mg/kg oral): 25% |

From patent publication US9493485B2, “Spirocyclic dihydro-thiazine and dihydro-oxazine BACE inhibitors, and compositions and uses thereof” (Imago Pharmaceuticals, Inc., priority 2012, dated 2016)
